The target of the experiment is Phospholipase A2 (Crotalus adamanteus). As to the kind of experiment: Inhibitory activity against phospholipase A2 of Croatalus adamanteus.

In the case of `OC(Cn1ccnc1)(c1ccc(F)cc1)c1ccc(-c2ccncc2)cc1` (stereo not drawn), the IC50 – broadly, the concentration at which inhibition is half-maximal – is more than 1000 µM.

Regarding `Cc1ccc(C(O)(Cn2ccnc2)c2ccc(-c3ccncc3)cc2)cc1` (stereo not drawn), the 50% inhibitory concentration (IC50) is more than 1000 µM.

For `Oc1c(Cc2ccccc2)ccc2ccccc12`, the half-inhibitory concentration (IC50) was more than 1000 µM.

Values taken from BindingDB's records for doi:10.1021/jm00095a009 (Dupont Pharmaceuticals, 1992).
